The text below walks through data of patent US20220324835A1 (Nurix Therapeutics, Inc., priority 2018, published 2022).

The test system of test [1] is T-cell. Nature of the test: IL-2 secretion from T-cells co-stimulated with anti-CD3 and anti-CD28 antibody (Biological Example 2). It is filed as cell-based, human. The settings on record: Homo sapiens, T-cell, fold change over baseline (anti-CD3/anti-CD28 stimulated T-cells without inhibitor), read-out: IL-2 secretion Anti-CD3/Anti-CD28 stimulation; for fold induction at 0.3 µM: 0.3 μM Cbl-b inhibitor; for fold induction at 1 µM: 1 μM Cbl-b inhibitor. Put shortly:
(§1)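 No assay protocol given; T-cells stimulated with anti-CD3 alone or anti-CD3 plus anti-CD28, with or without Cbl-b inhibitor. Activation read as IL-2 secretion or CD25 surface staining, expressed as fold over baseline from uninhibited cells […].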

Test [2] deals with T-cell. Nature of the test: CD25 cell surface staining on T-cells stimulated with anti-CD3 antibody alone (Biological Example 2). Format: cell-based, human. The settings on record: Homo sapiens, T-cell; 1 μM Cbl-b inhibitor; fold change over baseline (anti-CD3/anti-CD28 stimulated T-cells without inhibitor); read-out: CD25 staining Anti-CD3 stimulation.
Test [3] has as its target T1, Cbl-b (Homo sapiens, UniProt Q13191). Nature of the test: Cbl-b inhibition assay (Cbl-b activity assay, FRET, Biological Example 1; 100 mM NaCl, 60 nM Src kinase). Format: biochemical. The settings on record: upper bound stated in text lists; read-out: IC50 values in the Cbl-b inhibition assay of Biological Example 1. The method in brief:
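FRET read-out: loss of signal marks inhibition. Mix = biotin-Avi-Cbl-b (N-term), Src kinase, UbcH5B-Ub(Bodipy-FL, irreversible conjugate), streptavidin-Tb, assay buffer.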

The test system of test [4] is T-cell. Nature of the test: IL-2 secretion from T-cells stimulated with anti-CD3 antibody alone (Biological Example 2). It is filed as cell-based, human. To be noted: Homo sapiens, T-cell; 1 μM Cbl-b inhibitor; fold change over baseline (anti-CD3/anti-CD28 stimulated T-cells without inhibitor); read-out: IL-2 secretion Anti-CD3 stimulation.
The test system of test [5] is T-cell. Kind of test: CD25 cell surface staining on T-cells co-stimulated with anti-CD3 and anti-CD28 antibody (Biological Example 2). To be noted: Homo sapiens, T-cell, fold change over baseline (anti-CD3/anti-CD28 stimulated T-cells without inhibitor), read-out: CD25 staining Anti-CD3/Anti-CD28 stimulation; for fold induction at 0.3 µM: 0.3 μM Cbl-b inhibitor; for fold induction at 1 µM: 1 μM Cbl-b inhibitor. Format: cell-based, human. Put shortly:
as §1

Test [6] concerns the target T1, Cbl-b. Nature of the test: Cbl-b activity assay (Cbl-b inhibition assay), TR-FRET of Cbl-b interaction with UbcH5B-Ub. It is filed as biochemical. To be noted: assay buffer with 100 mM NaCl, 60 nM Src kinase; read-out: Cbl-b activity IC50. The method in brief:
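TR-FRET readout of Cbl-b binding to Bodipy-fluorescein N-terminally labeled Ub conjugated to UbcH5B C85K, measured with compound present. After compound incubation, 60 nM Src kinase with 1 mM ATP and 5 mM MgCl2 (final) was added for 1.5 h, then a further 1 h incubation; asterisked values used 50 mM NaCl buffer and 30 nM Src.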
In general terms: Time-resolved FRET reads energy transfer from a long-lived donor to a nearby acceptor.

Molecules are shown by their SMILES.

T1 sequence (Q13191 36-427): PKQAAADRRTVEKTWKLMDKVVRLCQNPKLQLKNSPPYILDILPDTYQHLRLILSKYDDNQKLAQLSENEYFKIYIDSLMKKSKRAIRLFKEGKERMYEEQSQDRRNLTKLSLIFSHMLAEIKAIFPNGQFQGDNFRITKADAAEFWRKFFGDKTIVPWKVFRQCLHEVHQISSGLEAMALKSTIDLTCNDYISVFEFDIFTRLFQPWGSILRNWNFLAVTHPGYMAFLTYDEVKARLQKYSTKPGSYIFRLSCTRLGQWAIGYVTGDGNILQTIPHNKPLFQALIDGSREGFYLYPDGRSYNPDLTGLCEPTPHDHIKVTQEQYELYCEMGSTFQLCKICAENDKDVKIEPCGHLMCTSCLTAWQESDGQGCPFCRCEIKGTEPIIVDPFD

Take `CN1CC2CCC1CN2c1cc2c(c(C(F)(F)F)c1)CN(c1cccc([C@@](C)(F)C(F)(F)c3nncn3C)c1)C2=O` (stereo partly drawn) [Example 565, 6-(5-Methyl-2,5-diazabicyclo[2.2.2]octan-2-yl)-2-(3-((R)-1,1,2-trifluoro-1-(4-methyl-4H-1,2,4-triazol-3-yl)propan-2-yl)phenyl)-4-(trifluoromethyl)isoindolin-1-one]: the fold induction at 0.3 µM with T-cell [1] fell in the range of 1.01 to 2.5; with T-cell [5], 1.31 to 1.5. Also, the fold induction at 1 µM with T-cell [1] was 2.51 to 5; in the test on T-cell [2], over 1; with T-cell [4] it was 0.101 to 0.15; with T-cell [5], 1.31 to 1.5. The results for the IC50 on Cbl-b [3] and on Cbl-b [6] were at most 0.1 µM and under 0.1 µM, respectively.
With `CN1CC2CC(C1)N2c1cc2c(c(C(F)(F)F)c1)CN(c1cccc([C@@](C)(F)C(F)(F)c3nncn3C)c1)C2=O` [Example 566, 6-(3-Methyl-3,6-diazabicyclo[3.1.1]heptan-6-yl)-2-(3-((R)-1,1,2-trifluoro-1-(4-methyl-4H-1,2,4-triazol-3-yl)propan-2-yl)phenyl)-4-(trifluoromethyl)isoindolin-1-one], the fold induction at 0.3 µM in the test with T-cell [1] is 5 to 7.5; with T-cell [5], 1.31 to 1.5. For the same compound, the fold induction at 1 µM was over 7.5 in the test with T-cell [1], over 1 in the test on T-cell [2], 0.101 to 0.15 with T-cell [4] and 1.51 to 1.75 with T-cell [5]. In addition, the IC50 is at most 0.1 µM at Cbl-b [3] and under 0.1 µM at Cbl-b [6].
With `Cn1cnnc1CC1(c2cccc(N3Cc4c(cc(N5CCOCC5)cc4C(F)(F)F)C3=O)c2)COC1` [Example 567, 2-(3-(3-((4-Methyl-4H-1,2,4-triazol-3-yl)methyl)oxetan-3-yl)phenyl)-6-morpholino-4-(trifluoromethyl)isoindolin-1-one], the fold induction at 0.3 µM with T-cell [1] is 1.01 to 2.5; with T-cell [5] it was 1.01 to 1.3. Besides, the fold induction at 1 µM with T-cell [1] lay in the range of 2.51 to 5; with T-cell [2], 0.801 to 1; in the test on T-cell [4], 0.051 to 0.1; in the test with T-cell [5], 1.01 to 1.3. Also, the IC50 on Cbl-b [3] was at most 0.1 µM; on Cbl-b [6], under 0.1 µM.
Turning to `Cn1cnnc1CC1(c2cccc(N3Cc4c(cc(C5CC5)nc4C4CC4)C3=O)c2)COC1` [Example 568, 4,6-Dicyclopropyl-2-(3-(3-((4-methyl-4H-1,2,4-triazol-3-yl)methyl)oxetan-3-yl)phenyl)-2,3-dihydro-1H-pyrrolo[3,4-c]pyridin-1-one], the figures for the fold induction at 0.3 µM in the test with T-cell [1] and with T-cell [5] were 1.01 to 2.5 and 1.01 to 1.3, respectively. Besides, the fold induction at 1 µM is 1.01 to 2.5 with T-cell [1], 0.801 to 1 in the test on T-cell [2], 0.101 to 0.15 in the test with T-cell [4] and 1.01 to 1.3 with T-cell [5]. For the same compound, the IC50 on Cbl-b [3] is at most 0.1 µM; on Cbl-b [6] it was under 0.1 µM.
In the case of `CN1C[C@H]2C[C@@H]1CN2c1cc2c(c(C(F)(F)F)c1)CN(c1cccc(C3(Cc4nncn4C)COC3)c1)C2=O` [Example 569, 2-(3-(3-((4-Methyl-4H-1,2,4-triazol-3-yl)methyl)oxetan-3-yl)phenyl)-6-((1R,4R)-5-methyl-2,5-diazabicyclo[2.2.1]heptan-2-yl)-4-(trifluoromethyl)isoindolin-1-one], the fold induction at 0.3 µM is over 7.5 in the test on T-cell [1] and 1.31 to 1.5 in the test on T-cell [5]. Besides, the fold induction at 1 µM with T-cell [1] was over 7.5; in the test with T-cell [2], over 1; in the test with T-cell [4], over 0.201; in the test on T-cell [5], 1.31 to 1.5. Further, the IC50 on Cbl-b [3] is at most 0.1 µM; at Cbl-b [6], under 0.1 µM.
Regarding `C[C@@H](c1cc2c(c(C(F)(F)F)c1)CN(c1cccc(C3(C(F)(F)c4nncn4C)COC3)c1)C2=O)N1CC[C@H](F)C1` [Example 570, 2-(3-(3-(Difluoro(4-methyl-4H-1,2,4-triazol-3-yl)methyl)oxetan-3-yl)phenyl)-6-((S)-1-((S)-3-fluoropyrrolidin-1-yl)ethyl)-4-(trifluoromethyl)isoindolin-1-one], the figures for the fold induction at 0.3 µM in the test with T-cell [1] and in the test with T-cell [5] were 2.51 to 5 and 1.31 to 1.5, respectively. Further, the fold induction at 1 µM in the test on T-cell [1] is over 7.5; with T-cell [2] it was over 1; in the test on T-cell [4] it was over 0.201; in the test on T-cell [5], 1.51 to 1.75. The IC50 was at most 0.1 µM at Cbl-b [3] and under 0.1 µM at Cbl-b [6].
As for `CN1CC2CC(C1)N2c1cc(C(=O)Nc2cccc(C3(Cc4nncn4C)COC3)c2)nc(C2CC2)n1` [Example 572, 2-Cyclopropyl-N-(3-(3-((4-methyl-4H-1,2,4-triazol-3-yl)methyl)oxetan-3-yl)phenyl)-6-(3-methyl-3,6-diazabicyclo[3.1.1]heptan-6-yl)pyrimidine-4-carboxamide], the fold induction at 0.3 µM with T-cell [1] was over 7.5; with T-cell [5], 1.31 to 1.5. Further, the fold induction at 1 µM was over 7.5 with T-cell [1], over 1 in the test on T-cell [2], over 0.201 with T-cell [4] and 1.31 to 1.5 in the test on T-cell [5]. Moreover, the IC50 was at most 0.1 µM on Cbl-b [3] and under 0.1 µM at Cbl-b [6].
For the compound `CN1C[C@H]2CC[C@@H](C1)N2c1cc(C(=O)Nc2cccc(C3(Cc4nncn4C)COC3)c2)nc(C2CC2)n1` [Example 573, 2-Cyclopropyl-N-(3-(3-((4-methyl-4H-1,2,4-triazol-3-yl)methyl)oxetan-3-yl)phenyl)-6-((1R,5S)-3-methyl-3,8-diazabicyclo[3.2.1]octan-8-yl)pyrimidine-4-carboxamide], the fold induction at 0.3 µM with T-cell [1] was 5 to 7.5; in the test on T-cell [5], 1.31 to 1.5. Besides, the fold induction at 1 µM was over 7.5 with T-cell [1], over 1 with T-cell [2], over 0.201 with T-cell [4] and 1.51 to 1.75 in the test with T-cell [5]. Moreover, the figures for the IC50 on Cbl-b [3] and on Cbl-b [6] were at most 0.1 µM and under 0.1 µM, respectively.
As to `Cn1cnnc1CC1(c2cccc(NC(=O)c3cc(CN4CC[C@H](F)C4)nc(C4CC4)n3)c2)COC1` [Example 574, (S)-2-Cyclopropyl-6-((3-fluoropyrrolidin-1-yl)methyl)-N-(3-(3-((4-methyl-4H-1,2,4-triazol-3-yl)methyl)oxetan-3-yl)phenyl)pyrimidine-4-carboxamide], the results for the fold induction at 0.3 µM in the test on T-cell [1] and in the test with T-cell [5] were over 7.5 and 1.51 to 1.75, respectively. Besides, the fold induction at 1 µM in the test on T-cell [1] was over 7.5; in the test on T-cell [2] it was over 1; in the test with T-cell [4], over 0.201; with T-cell [5], 1.51 to 1.75. Also, the IC50 on Cbl-b [3] was at most 0.1 µM; at Cbl-b [6], under 0.1 µM.
For `Cn1cnnc1CC1(c2cccc(N3Cc4c(ccc(F)c4C4CC4)C3=O)c2)COC1` [Example 577, 4-Cyclopropyl-5-fluoro-2-(3-(3-((4-methyl-4H-1,2,4-triazol-3-yl)methyl)oxetan-3-yl)phenyl)isoindolin-1-one], the figures for the fold induction at 0.3 µM with T-cell [1] and in the test with T-cell [5] were 1.01 to 2.5 and 1.01 to 1.3, respectively. For the same compound, the fold induction at 1 µM was in the range of 1.01 to 2.5 in the test with T-cell [1], 0.601 to 0.8 in the test with T-cell [2], 0.051 to 0.1 with T-cell [4] and 1.01 to 1.3 with T-cell [5]. The IC50 on Cbl-b [3] is at most 0.3 µM; on Cbl-b [6], 0.1 to 0.3 µM.
For the compound `Cn1cnnc1CC1(c2cccc(N3Cc4c(cc(CN5CC[C@H](F)C5)nc4C4CC4)C3=O)c2)COC1` [Example 578, (S)-4-cyclopropyl-6-((3-fluoropyrrolidin-1-yl)methyl)-2-(3-(3-((4-methyl-4H-1,2,4-triazol-3-yl)methyl)oxetan-3-yl)phenyl)-2,3-dihydro-1H-pyrrolo[3,4-c]pyridin-1-one], the fold induction at 0.3 µM in the test with T-cell [1] lay in the range of 2.51 to 5; in the test on T-cell [5] it was 1.01 to 1.3. For the same compound, the fold induction at 1 µM with T-cell [1] lay in the range of 5 to 7.5; in the test on T-cell [2], 0.801 to 1; with T-cell [4], 0.051 to 0.1; in the test on T-cell [5] it was 1.01 to 1.3. Further, the IC50 at Cbl-b [3] is at most 0.1 µM; at Cbl-b [6] it was under 0.1 µM.
In the case of `Cn1cnnc1CC1(c2cccc(N3Cc4c(cc(CN5CCCC5)nc4C4CC4)C3=O)c2)COC1` [Example 579, 4-Cyclopropyl-2-(3-(3-((4-methyl-4H-1,2,4-triazol-3-yl)methyl)oxetan-3-yl)phenyl)-6-(pyrrolidin-1-ylmethyl)-2,3-dihydro-1H-pyrrolo[3,4-c]pyridin-1-one], the fold induction at 0.3 µM was in the range of 1.01 to 2.5 in the test on T-cell [1] and 1.01 to 1.3 in the test on T-cell [5]. Besides, the fold induction at 1 µM in the test with T-cell [1] is 2.51 to 5; in the test with T-cell [2], under 0.6; with T-cell [4], under 0.05; with T-cell [5] it was 1.01 to 1.3. Also, the results for the IC50 on Cbl-b [3] and at Cbl-b [6] were at most 0.1 µM and under 0.1 µM, respectively.

The term IC50 denotes the midpoint of a concentration-inhibition curve.
